The target in this assay is Factor D (Homo sapiens, UniProt P00746). Briefly: Factor D esterolytic assay (Z-Lys-SBzl thioester substrate, DTNB, 405 nm). The assay is classed as biochemical. The note with it: substrate Z-Lys-SBzl 1.29 mM, 100 mM HEPES, 500 mM NaCl, pH 7.5, 10% DMSO, tested a minimum of three times. How it is done: The IC50 value of a compound (i.e., the concentration of the compound that inhibits 50% of the enzymatic activity) was calculated according to the procedure reported in U.S. Pat. No. 6,653,340 B1, e.g., column 74 (incorporated by reference).
Sequence of Factor D (P00746 26-253): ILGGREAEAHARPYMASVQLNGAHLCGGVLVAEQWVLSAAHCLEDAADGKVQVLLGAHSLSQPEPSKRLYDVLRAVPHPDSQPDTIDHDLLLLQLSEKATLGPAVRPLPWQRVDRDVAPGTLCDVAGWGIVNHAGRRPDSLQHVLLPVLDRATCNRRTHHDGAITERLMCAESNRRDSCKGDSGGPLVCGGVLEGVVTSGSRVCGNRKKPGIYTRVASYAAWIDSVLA
Specifically, the compounds were dissolved in a stock solution of DMSO at 10.0 or 100 mM. A portion of this stock solution was added to assay buffer in a final volume of 50 μL. Controls included buffer alone and enzyme solutions to which DMSO was added. Substrate was added to the reaction wells immediately or after incubation at room temperature. The reaction rates were measured spectrophotometrically by the generation of product at 405 nm for 600 sec. Background absorbance at 690 nm was measured and subtracted from the absorbance at 405 nm for each well.
The reaction rate for enzyme alone was compared to the rate of enzyme in the presence of inhibitor and the percent inhibition was calculated as shown below: Percent Inhibition=[Rate without inhibitor−Rate with inhibitor)/(Rate without inhibitor)]−100 Factor D Esterolytic Assay:
An established esterolytic assay for the measurement of Factor D activity and inhibition of Factor D activity was used (Kam, C. M.; McRae, B. J.; Harper, J. W.; Niemann, M. A.; Volanakis, J. E.; Powers, J. C. Human complement proteins D. C2, and B Active site mapping with peptide thioester substrates. J Biol. Chem. 1987, 262, 3444-3451). For this assay Z-Lys-SBzl, 1.29 mM (Kim, S.; Narayana, S. V. L; Volanakis, J. E. Mutational analysis of the substrate binding site of human complement Factor D. Biochemistry, 1994, 33, 14393-14399) was used as the substrate for Factor D ([…]). Hydrolysis of this compound by Factor D liberated a free sulfhydryl group which is then reacted with 5,5′-dithiobis(2-nitrobenzoic acid) producing an intense yellow color (Habeeb, A. F. S. A. Reaction of protein sulfhydryl groups with Ellman's Reagent. Methods in Enzymol. 1976, 25, 457-464). The assays were performed in 96 well microtiter plates and rates of hydrolysis were monitored at 405 nm on a Biotek Synergy H1 plate reader. Hydrolysis rates were reported as change in mOD/min. The assay was conducted in 100 mM HEPES, 500 mM NaCl, pH 7.5 containing 10% DMSO in a final volume of 50 μL per well.
An IC50, a compound concentration which inhibits 50% of the enzymatic activity, was calculated. Compounds in the examples were tested a minimum of three times.

Among the data in patent US12679843B2, “Pyrrolopyrimidine amines as complement inhibitors” (BioCryst Pharmaceuticals, Inc., priority 2020, dated 2026) are IC50 values, retold here.

For orientation: IC50 means the point on the concentration scale where inhibition reaches its midpoint.

As for `CC(C)(C)OC(=O)Nc1ccc2c3c(N)ncnc3n(CC(=O)N3[C@@H]4C[C@@H]4C[C@H]3C(=O)Nc3cccc(Br)n3)c2c1` [Compound 17f, tert-butyl (4-amino-9-(2-((1R,3S,5R)-3-((6-bromopyridin-2-yl)carbamoyl)-2-azabicyclo[3.1.0]hexan-2-yl)-2-oxoethyl)-9H-pyrimido[4,5-b]indol-7-yl)carbamate], the IC50 is less than 100 nM.

In the case of `Nc1ccc2c3c(N)ncnc3n(CC(=O)N3[C@@H]4C[C@@H]4C[C@H]3C(=O)Nc3cccc(Br)n3)c2c1` [Compound 18a, (1R,3S,5R)—N-(6-bromopyridin-2-yl)-2-(2-(4,7-diamino-9H-pyrimido[4,5-b]indol-9-yl)acetyl)-2-azabicyclo[3.1.0]hexane-3-carboxamide], the IC50 is less than 100 nM.

For `Nc1ncnc2c1c1ccccc1n2CC(=O)N1C[C@H](F)C[C@H]1C(=O)Nc1cccc(Br)n1` [Compound 19a, (2S,4R)-1-(2-(4-amino-9H-pyrimido[4,5-b]indol-9-yl)acetyl)-N-(6-bromopyridin-2-yl)-4-fluoropyrrolidine-2-carboxamide], the IC50 is less than 100 nM.

As for `Nc1ncnc2c1c1ccccc1n2CC(=O)N1C[C@H](F)C[C@H]1C(=O)NCc1cccc(Cl)c1F` [Compound 20a, (2S,4R)-1-(2-(4-amino-9H-pyrimido[4,5-b]indol-9-yl)acetyl)-N-(3-chloro-2-fluorobenzyl)-4-fluoropyrrolidine-2-carboxamide], the concentration for half-maximal inhibition (IC50) was less than 100 nM.

Take `Cc1ccc2c(c1)c1c(N)ncnc1n2CC(=O)N1C[C@H](F)C[C@H]1C(=O)Nc1cccc(Br)n1` [Compound 21a, (2S,4R)-1-(2-(4-amino-6-methyl-9H-pyrimido[4,5-b]indol-9-yl)acetyl)-N-(6-bromopyridin-2-yl)-4-fluoropyrrolidine-2-carboxamide]: the IC50 is less than 100 nM.

For the molecule `Cc1ccc2c3c(N)ncnc3n(CC(=O)N3[C@@H]4C[C@@H]4C[C@H]3C(=O)Nc3cccc(Br)n3)c2c1` [Compound 23f, (1R,3S,5R)-2-(2-(4-amino-7-methyl-9H-pyrimido[4,5-b]indol-9-yl)acetyl)-N-(6-bromopyridin-2-yl)-2-azabicyclo[3.1.0]hexane-3-carboxamide], the IC50 is less than 100 nM.

Take `Cc1ccc2c3c(N)ncnc3n(CC(=O)N3[C@H](C(=O)Nc4cccc(Br)n4)C[C@@]4(C)C[C@@H]34)c2c1` [Compound 24a, (1R,3S,5R)-2-(2-(4-amino-7-methyl-9H-pyrimido[4,5-b]indol-9-yl)acetyl)-N-(6-bromopyridin-2-yl)-5-methyl-2-azabicyclo[3.1.0]hexane-3-carboxamide]: the IC50 was less than 100 nM.

Consider `Nc1ncnc2c1c1cc(C(F)(F)F)ccc1n2CC(=O)N1C[C@H](F)C[C@H]1C(=O)NCc1cccc(Cl)c1F` [Compound 25a, (2S,4R)-1-(2-(4-amino-6-(trifluoromethyl)-9H-pyrimido[4,5-b]indol-9-yl)acetyl)-N-(3-chloro-2-fluorobenzyl)-4-fluoropyrrolidine-2-carboxamide], for which the IC50 was less than 100 nM.

Consider `Nc1ncnc2c1c1cc(C(F)(F)F)ccc1n2CC(=O)N1C[C@H](F)C[C@H]1C(=O)Nc1cccc(Br)n1` [Compound 26a, (2S,4R)-1-(2-(4-amino-6-(trifluoromethyl)-9H-pyrimido[4,5-b]indol-9-yl)acetyl)-N-(6-bromopyridin-2-yl)-4-fluoropyrrolidine-2-carboxamide], for which the 50% inhibitory concentration (IC50) was less than 100 nM.

As for `Nc1ncnc2c1c1cc(C(F)(F)F)ccc1n2CC(=O)N1[C@@H]2C[C@@H]2C[C@H]1C(=O)Nc1cccc(Br)n1` [Compound 27a, (1R,3S,5R)-2-(2-(4-amino-6-(trifluoromethyl)-9H-pyrimido[4,5-b]indol-9-yl)acetyl)-N-(6-bromopyridin-2-yl)-2-azabicyclo[3.1.0]hexane-3-carboxamide], the IC50 was less than 100 nM.

For the molecule `C[C@@]12C[C@@H](C(=O)Nc3cccc(Br)n3)N(C(=O)Cn3c4ccc(C(F)(F)F)cc4c4c(N)ncnc43)[C@@H]1C2` [Compound 28a, (1R,3S,5R)-2-(2-(4-amino-6-(trifluoromethyl)-9H-pyrimido[4,5-b]indol-9-yl)acetyl)-N-(6-bromopyridin-2-yl)-5-methyl-2-azabicyclo[3.1.0]hexane-3-carboxamide], the 50% inhibitory concentration (IC50) was less than 100 nM.

In the case of `Nc1ncnc2c1c1ccncc1n2CC(=O)N1[C@@H]2C[C@@H]2C[C@H]1C(=O)Nc1cccc(Br)n1` [Compound 29f, (1R,3S,5R)-2-(2-(4-amino-9H-pyrido[4′,3′:4,5]pyrrolo[2,3-d]pyrimidin-9-yl)acetyl)-N-(6-bromopyridin-2-yl)-2-azabicyclo[3.1.0]hexane-3-carboxamide], the IC50 is less than 100 nM.

Take `Cc1cccc2c3c(N)ncnc3n(CC(=O)N3[C@@H]4C[C@@H]4C[C@H]3C(=O)Nc3cccc(Br)n3)c12` [Compound 30f, (1R,3S,5R)-2-(2-(4-amino-8-methyl-9H-pyrimido[4,5-b]indol-9-yl)acetyl)-N-(6-bromopyridin-2-yl)-2-azabicyclo[3.1.0]hexane-3-carboxamide]: the IC50 was less than 100 nM.

`Nc1ncnc2c1c1ncccc1n2CC(=O)N1[C@@H]2C[C@@H]2C[C@H]1C(=O)Nc1cccc(Br)n1` [Compound 31f, (1R,3S,5R)-2-(2-(4-amino-9H-pyrido[2′,3′:4,5]pyrrolo[2,3-d]pyrimidin-9-yl)acetyl)-N-(6-bromopyridin-2-yl)-2-azabicyclo[3.1.0]hexane-3-carboxamide]: the IC50 is less than 100 nM.

As to `Nc1ncnc2c1c1cc(F)ccc1n2CC(=O)N1[C@@H]2C[C@@H]2C[C@H]1C(=O)Nc1cccc(Br)n1` [Compound 32f, (1R,3S,5R)-2-(2-(4-amino-6-fluoro-9H-pyrimido[4,5-b]indol-9-yl)acetyl)-N-(6-bromopyridin-2-yl)-2-azabicyclo[3.1.0]hexane-3-carboxamide], the IC50 was less than 100 nM.

As for `Nc1ncnc2c1c1ccc(F)cc1n2CC(=O)N1[C@@H]2C[C@@H]2C[C@H]1C(=O)Nc1cccc(Br)n1` [Compound 33e, (1R,3S,5R)-2-(2-(4-amino-7-fluoro-9H-pyrimido[4,5-b]indol-9-yl)acetyl)-N-(6-bromopyridin-2-yl)-2-azabicyclo[3.1.0]hexane-3-carboxamide], the IC50 is less than 100 nM.

As for `Nc1ncnc2c1c1cc(Br)ccc1n2CC(=O)N1[C@@H]2C[C@@H]2C[C@H]1C(=O)Nc1cccc(Br)n1` [Compound 34e, (1R,3S,5R)-2-(2-(4-amino-6-bromo-9H-pyrimido[4,5-b]indol-9-yl)acetyl)-N-(6-bromopyridin-2-yl)-2-azabicyclo[3.1.0]hexane-3-carboxamide], the IC50 was less than 100 nM.

Take `Nc1ncnc2c1c1cccc(Br)c1n2CC(=O)N1[C@@H]2C[C@@H]2C[C@H]1C(=O)Nc1cccc(Br)n1` [Compound 35f, (1R,3S,5R)-2-(2-(4-amino-8-bromo-9H-pyrimido[4,5-b]indol-9-yl)acetyl)-N-(6-bromopyridin-2-yl)-2-azabicyclo[3.1.0]hexane-3-carboxamide]: the IC50 was less than 100 nM.

`COc1ccc2c3c(N)ncnc3n(CC(=O)N3[C@@H]4C[C@@H]4C[C@H]3C(=O)Nc3cccc(Br)n3)c2c1` [Compound 36e, (1R,3S,5R)-2-(2-(4-amino-7-methoxy-9H-pyrimido[4,5-b]indol-9-yl)acetyl)-N-(6-bromopyridin-2-yl)-2-azabicyclo[3.1.0]hexane-3-carboxamide]: the IC50 is less than 100 nM.

In the case of `COc1ccc2c3c(N)ncnc3n(CC(=O)N3[C@H](C(=O)Nc4cccc(Br)n4)C[C@@]4(C)C[C@@H]34)c2c1` [Compound 37a, (1R,3S,5R)-2-(2-(4-amino-7-methoxy-9H-pyrimido[4,5-b]indol-9-yl)acetyl)-N-(6-bromopyridin-2-yl)-5-methyl-2-azabicyclo[3.1.0]hexane-3-carboxamide], the IC50 was less than 100 nM.

For `COc1ccc2c(c1)c1c(N)ncnc1n2CC(=O)N1[C@@H]2C[C@@H]2C[C@H]1C(=O)Nc1cccc(Br)n1` [Compound 38e, (1R,3S,5R)-2-(2-(4-amino-6-methoxy-9H-pyrimido[4,5-b]indol-9-yl)acetyl)-N-(6-bromopyridin-2-yl)-2-azabicyclo[3.1.0]hexane-3-carboxamide], the IC50 was less than 100 nM.

Regarding `COC(=O)c1ccc2c(c1)c1c(N)ncnc1n2CC(=O)N1[C@@H]2C[C@@H]2C[C@H]1C(=O)Nc1cccc(Br)n1` [Compound 39f, methyl 4-amino-9-(2-((1R,3S,5R)-3-((6-bromopyridin-2-yl)carbamoyl)-2-azabicyclo[3.1.0]hexan-2-yl)-2-oxoethyl)-9H-pyrimido[4,5-b]indole-6-carboxylate], the IC50 was less than 100 nM.
